Test results as given in ChEMBL document CHEMBL3272289, “Amino acids. 1. alpha-Hydroxymethylphenylalanines” (1976).
Calls of active or inactive are those of the source. The calls are words filed in the database; no cut-off is given here.

What was measured:
Rattus norvegicus [1] = assay: Hypotensive effect in conscious spontaneously hypertensive rat assessed as reduction in blood pressure at 100 to 300 mg/kg, po; assay type: functional, organism-based
Rattus norvegicus [2] = assay: Hypotensive effect in conscious spontaneously hypertensive rat assessed as reduction in blood pressure at 100 mg/kg, po administered as single dose; assay type: functional
Rattus norvegicus [3] = assay: Hypotensive effect in conscious spontaneously hypertensive rat assessed as reduction in blood pressure at 50 mg/kg, po administered as single dose; assay type: functional

Structure (SMILES)	Activity (Rattus norvegicus [1])	Activity (Rattus norvegicus [2]) [mmHg]	Activity (Rattus norvegicus [3]) [mmHg]
NC(CO)(Cc1ccc(O)c(O)c1)C(=O)O (centres undefined)	inactive	–	–
NC(CO)(Cc1ccc(O)cc1)C(=O)O (centres undefined)	inactive	–	–
C[C@](N)(Cc1ccc(O)c(O)c1)C(=O)O [METHYLDOPA]	–	85	44
